Results reported in US20150344457A1, “METHODS OF INHIBITING PRMT5” (EPIZYME, INC., priority 2012, published 2015).
pEC50: −log10 of the molar value.

Tests used:
Z-138 cells [1] = test: Z-138 Methylation Assay (In Cell Western for symmetric di-methyl arginine and DNA content); type: cell-based; settings: Homo sapiens, Table D-2, read-out: ICW EC50
Procedure, shortened: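 Symmetric di-methyl arginine signal (800 nm) ratioed to DNA content (700 nm) by In Cell Western after four days of compound treatment of Z-138 suspension cells seeded at 50,000 cells/mL. Percent inhibition set between DMSO and 3 μM reference wells; IC50 curves from triplicates.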

Z-138 cells [2] = test: Z-138 Proliferation Assay (Cell Titer Glo, 5 days); type: cell-based; settings: Homo sapiens, Table D-2
Procedure, shortened: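 Exponentially growing Z-138 cells (10,000 cells/ml) in RPMI 1640 with 10% FBS are exposed to nine-point 3-fold dilutions (final top concentration 20 μM, 0.2% DMSO) for 5 days at 37° C. Viability is measured as ATP by CellTiter-Glo luminescence. The 50% inhibitory concentration comes from a 4-parameter fit.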

pEC50 (Z-138 cells [1]) | SMILES | pEC50 (Z-138 cells [2])
5.00 to 6.00 | O=C(c1ccc(Cn2nccc2-c2ccc(OCC(O)CN3CCc4ccccc4C3)cc2)cc1)N1CCCC1 (stereo not shown) [Compound D31] | 4.40 to 5.00
< 4.70 | COC(COc1cccc(CNC2CCCC2)c1)CN1CCc2ccccc2C1 (stereo not shown) [Compound D32] | < 4.40
5.00 to 6.00 | OC(CNc1cccc(CNC2CCCC2)c1)CN1CCc2ccccc2C1 (stereo not shown) [Compound D39] | < 4.70
5.00 to 6.00 | OC(COc1cccc(-c2ccccc2)c1)CN1CCc2ccccc2C1 (stereo not shown) [Compound D43] | < 4.70
6.00 to 7.00 | Cn1cnc2ccc(-c3cccc(OCC(O)CN4CCc5ccccc5C4)c3)cc21 (stereo not shown) [Compound D45] | 5.00 to 6.00
6.00 to 7.00 | OC(COc1ccc(C2CCCNC2)cc1)CN1CCc2ccccc2C1 (stereo not shown) [Compound D47] | 5.00 to 6.00
6.00 to 7.00 | CC(Oc1cccc(CNC2CCCC2)c1)C(O)CN1CCc2ccccc2C1 (stereo not shown) [Compound D49] | 5.00 to 6.00
6.00 to 7.00 | CN(CC(O)CN1CCc2ccccc2C1)c1cccc(CNC2CCCC2)c1 (stereo not shown) [Compound D53] | 4.40 to 5.00
5.00 to 6.00 | OC(COc1cccc(-c2ccc3cn[nH]c3c2)c1)CN1CCc2ccccc2C1 (stereo not shown) [Compound D58] | 4.40 to 5.00
4.40 to 5.00 | OC(COc1cccc(-c2ccc3c(c2)OCO3)c1)CN1CCc2ccccc2C1 (stereo not shown) [Compound D59] | 4.40 to 5.00
6.00 to 7.00 | Cn1cnc2cc(-c3cccc(OCC(O)CN4CCc5ccccc5C4)c3)ccc21 (stereo not shown) [Compound D60] | 4.40 to 5.00
5.00 to 6.00 | OC(COc1cccc(-c2cc(C(F)(F)F)ccc2Cl)c1)CN1CCc2ccccc2C1 (stereo not shown) [Compound D62] | 4.40 to 5.00
5.00 to 6.00 | CS(=O)(=O)c1ccc(-c2cccc(OCC(O)CN3CCc4ccccc4C3)c2)cc1 (stereo not shown) [Compound D63] | 4.40 to 5.00
6.00 to 7.00 | OC(COc1cccc(-c2cccc3cccnc23)c1)CN1CCc2ccccc2C1 (stereo not shown) [Compound D65] | 4.40 to 5.00
5.00 to 6.00 | CC(=O)c1cccc(-c2cccc(OCC(O)CN3CCc4ccccc4C3)c2)c1 (stereo not shown) [Compound D67] | 4.40 to 5.00
4.40 to 5.00 | OC(COc1cccc(-c2cccc(F)c2F)c1)CN1CCc2ccccc2C1 (stereo not shown) [Compound D68] | 4.40 to 5.00
5.00 to 6.00 | OCc1cccc(-c2cccc(OCC(O)CN3CCc4ccccc4C3)c2)c1 (stereo not shown) [Compound D72] | 4.40 to 5.00
5.00 to 6.00 | COc1cccc(-c2cccc(OCC(O)CN3CCc4ccccc4C3)c2)c1 (stereo not shown) [Compound D74] | 4.40 to 5.00
5.00 to 6.00 | COc1ccc(-c2cccc(OCC(O)CN3CCc4ccccc4C3)c2)cc1 (stereo not shown) [Compound D75] | 4.40 to 5.00
< 4.70 | CC1c2ccccc2CCN1CC(O)COc1cccc(-c2ccc3ncn(C)c3c2)c1 (stereo not shown) [Compound D80] | 5.00 to 6.00
6.00 to 7.00 | CC(C)n1cnc2ccc(-c3cccc(OCC(O)CN4CCc5ccccc5C4)c3)cc21 (stereo not shown) [Compound D81] | 4.40 to 5.00
5.00 to 6.00 | COc1ccc(Cn2cnc3ccc(-c4cccc(OCC(O)CN5CCc6ccccc6C5)c4)cc32)cc1 (stereo not shown) [Compound D82] | 4.40 to 5.00

pEC50 (Z-138 cells [1]) | SMILES | pEC50 (Z-138 cells [2])
5.00 to 6.00 | OC(COc1cccc(-c2ccc3nc[nH]c3c2)c1)CN1CCc2ccccc2C1 (stereo not shown) [Compound D83] | 4.40 to 5.00
5.00 to 6.00 | OC(COc1cccc(-c2ccc3nn[nH]c3c2)c1)CN1CCc2ccccc2C1 (stereo not shown) [Compound D84] | 5.00 to 6.00
5.00 to 6.00 | OC(COc1cccc(-c2ccc3c(c2)OCCO3)c1)CN1CCc2ccccc2C1 (stereo not shown) [Compound D85] | 4.40 to 5.00
5.00 to 6.00 | OC(COc1cccc(-c2cccc3c2oc2ccccc23)c1)CN1CCc2ccccc2C1 (stereo not shown) [Compound D86] | 4.40 to 5.00
5.00 to 6.00 | COc1ccc(-c2cccc(OCC(O)CN3CCc4ccccc4C3)c2)c(Cl)c1 (stereo not shown) [Compound D88] | 4.40 to 5.00
5.00 to 6.00 | OC(COc1cccc(-c2cnc3ccccc3c2)c1)CN1CCc2ccccc2C1 (stereo not shown) [Compound D89] | 4.40 to 5.00
5.00 to 6.00 | COc1ccc(-c2cccc(OCC(O)CN3CCc4ccccc4C3)c2)c(C)c1 (stereo not shown) [Compound D90] | 4.40 to 5.00
5.00 to 6.00 | OC(COc1cccc(-c2ccccc2Cl)c1)CN1CCc2ccccc2C1 (stereo not shown) [Compound D92] | 4.40 to 5.00
5.00 to 6.00 | OC(COc1cccc(-c2ccc3ncn(C4CNC4)c3c2)c1)CN1CCc2ccccc2C1 (stereo not shown) [Compound D208] | 5.00 to 6.00
6.00 to 7.00 | OC(COc1cccc(-c2ccc3ncn(C4CCNC4)c3c2)c1)CN1CCc2ccccc2C1 (stereo not shown) [Compound D209] | 5.00 to 6.00
6.00 to 7.00 | Cn1cc2ccc(-c3cccc(OCC(O)CN4CCc5ccccc5C4)c3)nc2n1 (stereo not shown) [Compound D210] | 4.40 to 5.00
5.00 to 6.00 | Cn1ncc2c1CN(c1cccc(OCC(O)CN3CCc4ccccc4C3)c1)CC2 (stereo not shown) [Compound D216] | < 4.70
5.00 to 6.00 | Cn1cnc2ccc(-c3cc(NCC(O)CN4CCc5ccccc5C4)ccn3)cc21 (stereo not shown) [Compound D217] | 4.40 to 5.00
6.00 to 7.00 | CN1CC(n2cnc3ccc(-c4cccc(OCC(O)CN5CCc6ccccc6C5)c4)cc32)C1 (stereo not shown) [Compound D218] | 5.00 to 6.00
6.00 to 7.00 | CN1CCC(n2cnc3ccc(-c4cccc(OCC(O)CN5CCc6ccccc6C5)c4)cc32)C1 (stereo not shown) [Compound D219] | 5.00 to 6.00
6.00 to 7.00 | OC(COc1cccc(-c2ccc3ncn(C4CCNCC4)c3c2)c1)CN1CCc2ccccc2C1 (stereo not shown) [Compound D220] | 5.00 to 6.00
6.00 to 7.00 | CN1CCC(n2cnc3ccc(-c4cccc(OCC(O)CN5CCc6ccccc6C5)c4)cc32)CC1 (stereo not shown) [Compound D221] | 5.00 to 6.00
6.00 to 7.00 | O=C(Cn1ccc2cnc(-c3cccc(OCC(O)CN4CCc5ccccc5C4)c3)nc21)N1CCOCC1 (stereo not shown) [Compound D222] | 4.40 to 5.00
6.00 to 7.00 | OC(COc1cccc(-c2cccc3[nH]cnc23)c1)CN1CCc2ccccc2C1 (stereo not shown) [Compound D223] | 4.40 to 5.00
6.00 to 7.00 | Cn1cc2ccc(-c3cc(NCC(O)CN4CCc5ccccc5C4)ncn3)cc2n1 (stereo not shown) [Compound D224] | < 4.70
6.00 to 7.00 | Cn1ncc2ccc(-c3ccnc(NCC(O)CN4CCc5ccccc5C4)c3)cc21 (stereo not shown) [Compound D226] | 5.00 to 6.00
> 7.00 | O=C(Cn1ccc2cnc(-c3ccnc(NCC(O)CN4CCc5ccccc5C4)c3)nc21)N1CCCC1 (stereo not shown) [Compound D233] | 5.00 to 6.00

pEC50 (Z-138 cells [1]) | SMILES | pEC50 (Z-138 cells [2])
> 7.00 | O=C(Cn1ccc2cnc(-c3ccnc(NCC(O)CN4CCc5ccccc5C4)c3)nc21)N1CCOCC1 (stereo not shown) [Compound D234] | 6.00 to 7.00
6.00 to 7.00 | OC(CNc1cccc(-c2cccc3[nH]cnc23)c1)CN1CCc2ccccc2C1 (stereo not shown) [Compound D235] | 4.40 to 5.00
6.00 to 7.00 | Cn1cc2ccc(-c3ccnc(NCC(O)CN4CCc5ccccc5C4)c3)cc2n1 (stereo not shown) [Compound D236] | 5.00 to 6.00
6.00 to 7.00 | Cn1ccc2ccc(-c3cc(NCC(O)CN4CCc5ccccc5C4)ncn3)cc21 (stereo not shown) [Compound D237] | 4.40 to 5.00
> 7.00 | Cn1cnc2ccc(-c3ccnc(NCC(O)CN4CCc5ccccc5C4)c3)nc21 (stereo not shown) [Compound D238] | 5.00 to 6.00
> 7.00 | Cn1ccc2cnc(-c3ccnc(NCC(O)CN4CCc5ccccc5C4)c3)nc21 (stereo not shown) [Compound D239] | 5.00 to 6.00
6.00 to 7.00 | OC(CNc1cc(-c2ccc3ncn(C4CCNC4)c3c2)ccn1)CN1CCc2ccccc2C1 (stereo not shown) [Compound D240] | 5.00 to 6.00
6.00 to 7.00 | OC(CNc1cc(-c2ccc3ncn(C4CCNCC4)c3c2)ccn1)CN1CCc2ccccc2C1 (stereo not shown) [Compound D241] | 5.00 to 6.00
6.00 to 7.00 | CC(=O)N1CCC(n2cnc3ccc(-c4ccnc(NCC(O)CN5CCc6ccccc6C5)c4)cc32)CC1 (stereo not shown) [Compound D242] | 5.00 to 6.00
6.00 to 7.00 | CC(=O)N1CCC(n2ccc3cnc(-c4cccc(OCC(O)CN5CCc6ccccc6C5)c4)nc32)CC1 (stereo not shown) [Compound D243] | 5.00 to 6.00
6.00 to 7.00 | CN1CCN(C(=O)Cn2ccc3cnc(-c4cccc(OCC(O)CN5CCc6ccccc6C5)c4)nc32)CC1 (stereo not shown) [Compound D244] | 4.40 to 5.00
6.00 to 7.00 | CNC(=O)Cn1ccc2cnc(-c3ccnc(NCC(O)CN4CCc5ccccc5C4)c3)nc21 (stereo not shown) [Compound D245] | 5.00 to 6.00
> 7.00 | O=C(Cn1ccc2cnc(-c3ccnc(NCC(O)CN4CCc5ccccc5C4)c3)nc21)N1CCCCC1 (stereo not shown) [Compound D246] | 6.00 to 7.00
> 7.00 | CN1CCN(C(=O)Cn2ccc3cnc(-c4ccnc(NCC(O)CN5CCc6ccccc6C5)c4)nc32)CC1 (stereo not shown) [Compound D247] | 5.00 to 6.00
6.00 to 7.00 | Cn1ncc2cnc(-c3cccc(OCC(O)CN4CCc5ccccc5C4)c3)cc21 (stereo not shown) [Compound D248] | 4.40 to 5.00
6.00 to 7.00 | O=C(Cn1cnc2ccc(-c3cccc(OCC(O)CN4CCc5ccccc5C4)c3)cc21)N1CCCCC1 (stereo not shown) [Compound D249] | 4.40 to 5.00
6.00 to 7.00 | CN1CCC(n2cnc3ccc(-c4ccnc(NCC(O)CN5CCc6ccccc6C5)c4)cc32)C1 (stereo not shown) [Compound D250] | 5.00 to 6.00
6.00 to 7.00 | OC(CNc1cc(-c2ccc3ncn(C4CCOCC4)c3c2)ccn1)CN1CCc2ccccc2C1 (stereo not shown) [Compound D251] | 5.00 to 6.00
6.00 to 7.00 | CN1CCC(n2cnc3ccc(-c4ccnc(NCC(O)CN5CCc6ccccc6C5)c4)cc32)CC1 (stereo not shown) [Compound D252] | 5.00 to 6.00
6.00 to 7.00 | OC(COc1cccc(-c2ncc3ccn(C4CCNCC4)c3n2)c1)CN1CCc2ccccc2C1 (stereo not shown) [Compound D253] | 5.00 to 6.00
6.00 to 7.00 | OC(CNc1cc(-c2ncc3ccn(C4CNC4)c3n2)ccn1)CN1CCc2ccccc2C1 (stereo not shown) [Compound D254] | 5.00 to 6.00
